What all share (test): NCI-60 cell line screen, 48 h
The subject of assay [1] is OVCAR-5 ovarian.
For assay [2], the system named is LOX IMVI melanoma.
The subject of assay [3] is TK-10 renal.
In assay [4] the test system is K-562 leukemia.
The test system of assay [5] is COLO 205 colon.
In assay [6] the test system is HS 578T breast.
Assay [7] has as its system MDA-MB-231 breast.
The test system of assay [8] is NCI/ADR-RES ovarian.
For assay [9], the system named is SK-MEL-2 melanoma.
Assay [10] concerns MOLT-4 leukemia.
In assay [11] the test system is MDA-MB-435.
For assay [12], the system named is SK-MEL-28 melanoma.
Assay [13] concerns SNB-75 CNS.
For assay [14], the system named is UO-31 renal.

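Test compounds were applied to cells in 96-well plates for 48 hours at 5 doses. Definition used: TGI = concentration required for complete inhibition of growth.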 Where a SMILES comes first, the peptide text is derived from it. [ ]: non-standard residue; d: D form. ΔPro = O=C(O)[CH]1C=CCN1

For `CCOC(=O)CN1C(=O)NC(C)(c2ccccc2)C1=O` (stereo not given), the TGI in [1], in [2], in [3], in [4], in [5] and in assay [6] was above 100 µM each time. The TGI in [7], in [8], in assay [9], in [10], in [11] and in assay [12] was above 100 µM throughout. For the same molecule, the TGI in assay [13] and in [14] was above 100 µM throughout.
Regarding `O=C1C=C(c2ccccc2)OC1C1Sc2ccccc2NC1=O` (stereo not given), the TGI was above 100 µM in assay [1]; above 64.6 µM in assay [2]; above 27.9 µM in assay [3]; above 28.3 µM in assay [4]; 18.5 µM in assay [5]; above 100 µM in assay [6]. Moreover, the TGI is above 57.1 µM in assay [7]; above 80.9 µM in assay [8]; above 41.1 µM in assay [9]; above 40.1 µM in assay [10]; above 100 µM in [11]; above 100 µM in [12]. The values for the TGI in assay [13] and in assay [14] were 50.3 µM and 76.1 µM, respectively.
On to `Cn1c(=O)c2ccccc2[n+]2c(-c3cccc([N+](=O)[O-])c3)csc12`, for which the TGI in assay [1] was above 100 µM; in assay [2], above 100 µM; in assay [3], above 100 µM; in assay [4], above 100 µM; in [5], above 100 µM; in [6], 83.3 µM. Besides, the TGI in [7] is above 100 µM; in assay [8], 83.5 µM; in [9], above 100 µM; in assay [10], above 100 µM; in assay [11], above 100 µM; in [12], above 100 µM. Also, the TGI is 82.2 µM in assay [13] and above 100 µM in assay [14].
Take `N#Cc1c(Cl)cc(C#N)n2c1nc1ccccc12`: the TGI in assay [1] amounted to 30.3 µM; in [2] it was 7.02 µM; in assay [3], 26.4 µM; in assay [4] it was 21.1 µM; in [5], 15.3 µM; in assay [6] it was 83.7 µM. For the same molecule, the TGI was 24 µM in assay [7]; 42.4 µM in assay [8]; 33 µM in [9]; 5.4 µM in assay [10]; 26.2 µM in assay [11]; 26.5 µM in assay [12]. The TGI was 38.7 µM in assay [13] and 19 µM in [14].
Turning to `CCN(CC)C1Oc2cc3c(cc2C(c2cc(OC)c(O)c(OC)c2)C1C)OCO3` (stereo not given), the TGI was 21.7 µM in assay [1]; 29 µM in assay [2]; 72.5 µM in assay [3]; 17.4 µM in [4]; 31.8 µM in assay [5]; 50.9 µM in [6]. The TGI in assay [7] was 73.7 µM; in assay [8], 37.4 µM; in [9], above 95.7 µM; in assay [10], 27.2 µM; in assay [11] it was 6.05 µM; in assay [12], 44.2 µM. For the same molecule, the TGI in assay [13] was 23.9 µM; in [14] it was above 100 µM.
With `Cn1nnc2c(C(N)=S)ncn2c1=O`, the TGI in assay [1], in assay [2], in assay [3], in [4], in assay [5] and in [6] was above 100 µM each time. The TGI in assay [7], in assay [8], in assay [9], in assay [10], in [11] and in [12] was above 100 µM in each case. In addition, the TGI in [13] and in assay [14] was above 100 µM throughout.
On to `O=C(O)C1C=CCN1C(=O)C1C=CCN1C(=O)C1C=CCN1` (stereo not given) (H-[ΔPro]-[ΔPro]-[ΔPro]-OH; configuration not given here), for which the TGI in assay [1], in assay [2], in assay [3], in [4], in assay [5] and in [6] was above 100 µM each time. Further, the TGI in assay [7], in [8], in assay [9], in [10], in assay [11] and in [12] was above 100 µM throughout. The TGI in [13] and in assay [14] was above 100 µM each time.
Take `O[C@@]1(C#Cc2ccc3c(c2)OCO3)CCC[C@H]1NCc1ccccc1`: the TGI in assay [1] is above 100 µM; in assay [2], 30.9 µM; in [3], 70.6 µM; in [4], 41.5 µM; in assay [5], 37.4 µM; in [6], 50.8 µM. Moreover, the TGI in [7] was above 100 µM; in assay [8], 40.6 µM; in assay [9], 31.9 µM; in assay [10] it was 45.1 µM; in [11], 50.2 µM; in [12] it was 38.1 µM. The TGI was found to be 89.8 µM in assay [13] and 43.9 µM in assay [14].
In the case of `C=C(COCO)C(C)=O`, the TGI is 35.3 µM in assay [1]; 31.7 µM in assay [2]; 26.9 µM in [3]; above 27 µM in assay [4]; 20.8 µM in assay [5]; 62.7 µM in assay [6]. In addition, the TGI in [7] was determined as 33.6 µM; in assay [8], 51.5 µM; in assay [9], 40.5 µM; in assay [10], 6.08 µM; in assay [11], 28.3 µM; in assay [12], 32 µM. Also, the TGI came to 30.5 µM in [13] and 25.7 µM in assay [14].
In the case of `CC1(C)CC[C@]2(C(=O)O)CC[C@]3(C)C(=CCC4=C5C[C@H](O)[C@H](O)[C@@](C)(CO)[C@@]5(C)CC[C@]43C)[C@@H]2C1`, the TGI in assay [1] is above 100 µM; in [2], above 100 µM; in assay [3], above 100 µM; in assay [4], above 100 µM; in [5], 30 µM; in assay [6], above 100 µM. For the same molecule, the TGI in assay [7], in [8], in assay [9], in assay [10], in assay [11] and in [12] was above 100 µM each time. In addition, the TGI is 83.8 µM in [13] and above 100 µM in assay [14].
With `CC1=NN(c2ccc(S(=O)(=O)O)cc2)C2(C1)C(Cl)C(=O)N2c1nc2ccccc2s1` (stereo not given), the TGI in assay [1], in assay [2], in assay [3], in [4], in [5] and in assay [6] was above 100 µM throughout. Further, the TGI in assay [7], in [8], in assay [9], in assay [10], in [11] and in assay [12] was above 100 µM throughout. In addition, the TGI in assay [13] and in [14] was above 100 µM throughout.
`Cc1c(C(=O)c2ccccc2)[n+](=O)c2cc(Cl)c(Cl)cc2n1[O-]`: the TGI in assay [1] stood at 31.8 µM; in assay [2], 15.8 µM; in assay [3] it was 23.9 µM; in assay [4] it was 17.8 µM; in [5], 33.5 µM; in [6], 31.2 µM. The TGI in assay [7] was found to be 25.9 µM; in [8] it was 38 µM; in assay [9], 21.3 µM; in assay [10], 12.2 µM; in [11] it was 24.5 µM; in assay [12], 29.1 µM. Further, the TGI in assay [13] came out at 15.8 µM; in [14], 26.1 µM.
With `COC(=O)c1cc(CC2Cc3cc4c(cc3C2=O)CCC4)cc2c1CCC2` (stereo not given), the TGI in assay [1], in assay [2], in [3], in [4], in [5] and in assay [6] was above 100 µM throughout. The TGI in assay [7], in [8], in [9], in [10], in assay [11] and in assay [12] was above 100 µM throughout. In addition, the TGI in [13] and in assay [14] was above 100 µM in each case.
For the molecule `[N-]=[N+]=NC1C(O)C(CO)OC1n1ccc(N)nc1=O` (stereo not given), the TGI in assay [1] is above 625 µM; in [2] it was above 625 µM; in assay [3] it was above 625 µM; in assay [4] it was above 625 µM; in assay [5], above 568 µM; in assay [6], above 625 µM. Besides, the TGI was above 564 µM in assay [7]; above 625 µM in assay [8]; above 585 µM in assay [9]; above 174 µM in [10]; above 625 µM in [11]; above 625 µM in assay [12]. In addition, the TGI in assay [13] is above 625 µM; in assay [14], 616 µM.
On to `O=C1Nc2ccc(Br)cc2/C1=N/S(=O)(=O)O`, for which the TGI in assay [1] was 79.3 µM; in [2] it was 28 µM; in [3], 57.1 µM; in [4], 42.6 µM; in assay [5], above 100 µM; in assay [6], above 100 µM. Also, the TGI in assay [7] is 36 µM; in assay [8], above 100 µM; in assay [9], 22.4 µM; in assay [10], 63.4 µM; in assay [11] it was 22.7 µM; in assay [12], above 100 µM. For the same molecule, the TGI in assay [13] and in assay [14] was above 100 µM throughout.
As to `C=C1c2nc3ccccc3n2C=C(c2ccccc2)N1c1ccc(Cl)cc1`, the TGI in assay [1] is above 100 µM; in assay [2], above 100 µM; in [3] it was 57.2 µM; in [4], above 100 µM; in assay [5], above 100 µM; in [6], above 59.1 µM. The TGI in assay [7] was 51.8 µM; in [8], above 77.7 µM; in assay [9], above 100 µM; in assay [10], above 100 µM; in [11], above 100 µM; in [12] it was above 100 µM. Also, the TGI is 19 µM in assay [13] and above 100 µM in assay [14].
`CSc1c(C#N)c(=O)n(N)c2c1c(C)nn2-c1ccccc1`: the TGI in assay [1] was above 100 µM; in [2], 52.6 µM; in [3] it was above 100 µM; in assay [4], 87 µM; in [5], 32.5 µM; in [6], above 100 µM. Also, the TGI in [7] is 57.9 µM; in assay [8] it was 62.9 µM; in assay [9] it was 63.3 µM; in assay [10], 85.1 µM; in [11] it was above 100 µM; in assay [12], above 100 µM. The results for the TGI in [13] and in assay [14] were 85.4 µM and 51.9 µM, respectively.
Consider `CN1CCN(c2cc3nc(-c4ccc(Cl)cc4)[nH]c3cc2F)CC1`, for which the TGI is 48.9 µM in assay [1]; above 65.6 µM in [2]; 15.4 µM in [3]; 28.7 µM in [4]; 51.1 µM in assay [5]; 42.6 µM in assay [6]. Further, the TGI in assay [7] came out at 60.8 µM; in assay [8], 67.6 µM; in assay [9] it was 34.5 µM; in [10], 41.1 µM; in assay [11], 32.1 µM; in assay [12], 30.8 µM. Moreover, the TGI in [13] was 50.1 µM; in assay [14] it was 20.6 µM.
In the case of `CN1CCC2(c3ccccc3)CC(=O)/C(=C/c3ccc(Cl)c(Cl)c3)C1C2` (stereo not given), the TGI in assay [1] is 6.37 µM; in assay [2], 3.34 µM; in assay [3], 11.7 µM; in assay [4], 7.28 µM; in assay [5], 4.2 µM; in assay [6] it was above 45.7 µM. The TGI in [7] stood at 3.21 µM; in assay [8] it was 11 µM; in [9], 9.87 µM; in assay [10], 7.81 µM; in assay [11] it was 5.14 µM; in [12], 5.59 µM. The TGI in assay [13] is 11.2 µM; in assay [14] it was 3.82 µM.
As for `COc1ccc(N2C(=O)C(Cl)C2c2cc3cc(Br)ccc3nc2Cl)cc1` (stereo not given), the TGI was above 25 µM in assay [1]; 4.41 µM in assay [2]; 15.5 µM in assay [3]; above 25 µM in assay [4]; 9.11 µM in assay [5]; above 25 µM in assay [6]. For the same molecule, the TGI was 9.1 µM in assay [7]; 14.1 µM in [8]; 11.1 µM in assay [9]; 11.9 µM in assay [10]; 10.7 µM in [11]; above 25 µM in assay [12]. Also, the TGI was above 25 µM in [13] and 2.43 µM in assay [14].

(Values after PubChem BioAssay (NCI).)
